Experiments:
[1] = test system: unfractionated heparin (UFH); assay: aPTT clotting assay, UFH 0.2 U/mL in plasma (Example 7); assay type: biochemical; conditions: UFH 0.2 U/mL in plasma
Experimental: aPTT clotting Assay. Unfractionated heparin was mixed with plasma at a final concentration of 0.2 U/mL. […] The ACL Elite Hemostasis analyzer (Beckman Coulter™) was used to add aPTT reagent (HemosIL SynthASil) to supplemented plasma. Clotting was initiated by addition of CaCl2 and time to clot was recorded.

[2] = test system: enoxaparin (ENOX); assay: FXa chromogenic assay (absence of plasma), enoxaparin; conditions: enoxaparin 0.1 μg/mL, absence of plasma
[3] = test system: fondaparinux (FONDAPX); assay: FXa chromogenic assay (absence of plasma), fondaparinux; conditions: fondaparinux 0.02 μg/mL, absence of plasma

| SMILES | UFH (aPTT) EC50 [1] | ENOX (FXa) EC50 [2] [µg/mL] | FONDAPX (FXa) EC50 [3] |
| --- | --- | --- | --- |
| COc1cc(OC)c(C(=O)Nc2cc(C(F)(F)F)cc(NC(=O)CCCCNC(=N)N)c2SCCN)cc1C(=O)Nc1cc(C(F)(F)F)cc(NC(=O)CCCCNC(=N)N)c1SCCN [Compound 1] | inactive | 0.18 | inactive |
| COc1cc(OC)c(C(=O)N[C@H]2CC[C@H](NC(=O)c3cc(C(=O)NCCN(C)C)c(OCCCCCN)cc3OCCCCCN)CC2)cc1C(=O)NC1CCC(NC(=O)c2cc(C(=O)NCCN(C)C)c(OCCCCCN)cc2OCCCCCN)CC1 (stereo partly drawn) [Compound 2] | 6.25 µg/mL | 2.26 | inactive |
| COc1cc(OC)c(C(=O)N[C@H]2CC[C@H](NC(=O)c3cc(C(=O)NCCN(C)C)c(OCCCCCNC(=N)N)cc3OCCCCCNC(=N)N)CC2)cc1C(=O)NC1CCC(NC(=O)c2cc(C(=O)NCCN(C)C)c(OCCCCCNC(=N)N)cc2OCCCCCNC(=N)N)CC1 (stereo partly drawn) [Compound 3] | 1.76 µg/mL | 0.25 | 1.34 µg/mL |
| CN(C)CCNC(=O)c1cc(C(=O)NCCN(C)C)c(OCCCCCN)cc1OCCCCCN [Compound 4] | inactive | 47.94 | 84.66 µg/mL |
| COc1ccc(NC(=O)[C@@H](CCCNC(=N)N)NC(=O)c2cc(NC(=O)[C@@H](CCCNC(=N)N)NC(=O)c3cc(NC(=O)[C@@H](CCCNC(=N)N)NC(=O)c4cc(NC(=O)[C@H](N)CCCNC(=N)N)ccc4F)ccc3F)ccc2OC)cc1C(N)=O [Compound 25] | – | 0.97 | 10.36 µg/mL |
| COc1ccc(NC(=O)C(CCCCN)NC(=O)c2cc(NC(=O)C(CCCCN)NC(=O)c3cc(NC(=O)C(CCCCN)NC(=O)c4cc(NC(=O)C(CCCCN)NC(=N)N)ccc4OC)ccc3OC)ccc2OC)cc1C(N)=O (stereo not drawn) [Compound 29] | – | 0.78 | 8.33 µg/mL |
| COc1ccc(NC(=O)[C@@H](CCCCN)NC(=O)c2cc(NC(=O)[C@@H](CCCNC(=N)N)NC(=O)c3cc(NC(=O)[C@@H](CCCCN)NC(=O)c4cc(NC(=O)[C@H](N)CCCCN)ccc4OC)ccc3OC)ccc2OC)cc1C(N)=O [Compound 32] | – | 30.00 | inactive |
| COc1ccc(NC(=O)[C@@H](CCCNC(N)=O)NC(=O)c2cc(NC(=O)[C@@H](CCCNC(N)=O)NC(=O)c3cc(NC(=O)[C@@H](CCCNC(N)=O)NC(=O)c4cc(NC(=O)[C@H](N)CCCNC(N)=O)ccc4OC)ccc3OC)ccc2OC)cc1C(N)=O [Compound 33] | – | 4.30 | inactive |
| COc1ccc(NC(=O)[C@@H](CCCCN)NC(=O)c2c(OC)ccc(NC(=O)[C@@H](CCCCN)NC(=O)c3c(OC)ccc(NC(=O)[C@@H](CCCCN)NC(=O)c4c(OC)ccc(NC(=O)[C@H](N)CCCCN)c4OC)c3OC)c2OC)c(OC)c1C(N)=O [Compound 36] | – | 45.00 | inactive |
| COc1ccc(NC(=O)[C@@H](CCCCN)NC(=O)c2cc(NC(=O)[C@H](CCCCN)NC(=O)c3cc(NC(=O)[C@@H](CCCCN)NC(=O)c4cc(NC(=O)[C@@H](N)CCCCN)ccc4OC)ccc3OC)ccc2OC)cc1C(N)=O [Compound 37] | – | 45.00 | inactive |
| COc1ccc(NC(=O)[C@@H](CCCNC(=N)N)NC(=O)c2cc(NC(=O)[C@@H](CCCNC(=N)N)NC(=O)c3cc(NC(=O)[C@@H](CCCNC(=N)N)NC(=O)c4cc(NC(=O)[C@H](N)CCCNC(=N)N)ccc4OC)ccc3OC)ccc2OC)cc1C(=O)NCCN [Compound 51] | – | 0.15 | 4.26 µg/mL |
| COc1ccc(NC(=O)[C@@H](CCCNC(=N)N)NC(=O)c2cc(NC(=O)[C@@H](CCCNC(=N)N)NC(=O)c3cc(NC(=O)[C@@H](CCCNC(=N)N)NC(=O)c4cc(NC(=O)[C@@H](C)N)ccc4OC)ccc3OC)ccc2OC)cc1C(=O)NCCN [Compound 54] | – | 0.22 | 5.92 µg/mL |
| COc1ccc(NC(=O)[C@@H](CCCNC(=N)N)NC(=O)c2cc(NC(=O)[C@@H](CCCNC(=N)N)NC(=O)c3cc(NC(=O)[C@@H](CCCNC(=N)N)NC(=O)c4cc(NC(=O)[C@@H](C)N)ccc4OC)ccc3OC)ccc2OC)cc1C(=O)NCCCCCN [Compound 55] | – | 0.18 | 4.16 µg/mL |
| COc1ccc(NC(=O)[C@@H](CCCNC(=N)N)NC(=O)c2cc(NC(=O)[C@@H](CCCNC(=N)N)NC(=O)c3cc(NC(=O)[C@@H](CCCNC(=N)N)NC(=O)c4cc(NC(=O)[C@@H](C)NC(C)=O)ccc4OC)ccc3OC)ccc2OC)cc1C(=O)NCCN [Compound 56] | – | 0.43 | 5.24 µg/mL |
| COc1ccc(NC(=O)[C@@H](CCCNC(=N)N)NC(=O)c2cc(NC(=O)[C@@H](CCCNC(=N)N)NC(=O)c3cc(NC(=O)[C@@H](CCCNC(=N)N)NC(=O)c4cc(NC(=O)[C@@H](C)NC(=O)CCCCNC(=N)N)ccc4OC)ccc3OC)ccc2OC)cc1C(=O)NCCN [Compound 57] | – | 0.17 | 3.25 µg/mL |
| COc1ccc(NC(=O)[C@@H](CCCNC(=N)N)NC(=O)c2cc(NC(=O)[C@@H](CCCNC(=N)N)NC(=O)c3cc(NC(=O)[C@@H](CCCNC(=N)N)NC(=O)c4cc(NC(=O)[C@@H](C)NC(=O)CCCCN)ccc4OC)ccc3OC)ccc2OC)cc1C(=O)NCCN [Compound 58] | – | 0.36 | 3.94 µg/mL |
| COc1ccc(NC(=O)[C@@H](CCCNC(=N)N)NC(=O)c2cc(NC(=O)[C@@H](CCCNC(=N)N)NC(=O)c3cc(NC(=O)[C@@H](CCCNC(=N)N)NC(=O)c4cc(NC(=O)[C@@H](C)NC(=O)CCN)ccc4OC)ccc3OC)ccc2OC)cc1C(=O)NCCN [Compound 59] | – | 0.13 | 4.53 µg/mL |
| COc1ccc(NC(=O)[C@@H](CCCNC(=N)N)NC(=O)c2cc(NC(=O)[C@@H](CCCNC(=N)N)NC(=O)c3cc(NC(=O)[C@@H](CCCNC(=N)N)NC(=O)c4cc(NC(=O)[C@@H](C)NC(C)=O)ccc4OC)ccc3OC)ccc2OC)cc1C(=O)NCCCCCN [Compound 60] | – | 0.21 | 2.66 µg/mL |
| COc1ccc(NC(=O)[C@@H](CCCNC(=N)N)NC(=O)c2cc(NC(=O)[C@@H](CCCNC(=N)N)NC(=O)c3cc(NC(=O)[C@@H](CCCNC(=N)N)NC(=O)c4cc(NC(=O)[C@@H](C)NC(=O)CCCCNC(=N)N)ccc4OC)ccc3OC)ccc2OC)cc1C(=O)NCCCCCN [Compound 61] | – | 0.11 | 2.99 µg/mL |
| COc1ccc(NC(=O)[C@@H](CCCNC(=N)N)NC(=O)c2cc(NC(=O)[C@@H](CCCNC(=N)N)NC(=O)c3cc(NC(=O)[C@@H](CCCNC(=N)N)NC(=O)c4cc(NC(=O)[C@@H](C)NC(=O)CCCCN)ccc4OC)ccc3OC)ccc2OC)cc1C(=O)NCCCCCN [Compound 62] | – | 0.10 | 3.99 µg/mL |
| COc1ccc(NC(=O)[C@@H](CCCNC(=N)N)NC(=O)c2cc(NC(=O)[C@@H](CCCNC(=N)N)NC(=O)c3cc(NC(=O)[C@@H](CCCNC(=N)N)NC(=O)c4cc(NC(=O)[C@@H](C)NC(=O)CCN)ccc4OC)ccc3OC)ccc2OC)cc1C(=O)NCCCCCN [Compound 63] | – | 0.10 | 3.29 µg/mL |
| N=C(N)NCCC[C@@H](N)C(=O)Nc1cccc(C(=O)N[C@H](CCCNC(=N)N)C(=O)Nc2cccc(C(=O)N[C@H](CCCNC(=N)N)C(=O)Nc3cccc(C(=O)N[C@H](CCCNC(=N)N)C(=O)Nc4cccc(C(N)=O)n4)n3)n2)n1 [Compound 65] | 4.48 µg/mL | 16.29 | – |
| COc1ccc(NC(=O)[C@@H](CCCNC(=N)N)NC(=O)c2cc(NC(=O)[C@@H](CCCNC(=N)N)NC(=O)c3cc(NC(=O)[C@@H](CCCNC(=N)N)NC(=O)c4cc(NC(=O)[C@@H](CCCNC(=N)N)NC(=O)CCCCCCCCC(=O)N[C@H](CCCNC(=N)N)C(=O)Nc5ccc(OC)c(C(=O)N[C@H](CCCNC(=N)N)C(=O)Nc6ccc(OC)c(C(=O)N[C@H](CCCNC(=N)N)C(=O)Nc7ccc(OC)c(C(=O)N[C@H](CCCNC(=N)N)C(=O)Nc8ccc(OC)c(C(N)=O)c8)c7)c6)c5)ccc4OC)ccc3OC)ccc2OC)cc1C(N)=O [Compound 66] | 2.53 µg/mL | – | – |
| COc1ccc(NC(=O)[C@@H](CCCNC(=N)N)NC(=O)c2cc(NC(=O)[C@@H](CCCNC(=N)N)NC(=O)c3cc(NC(=O)[C@@H](CCCNC(=N)N)NC(=O)c4cc(NC(=O)[C@H](N)CCCNC(N)=O)ccc4OC)ccc3OC)ccc2OC)cc1C(N)=O [Compound 82] | – | 0.07 | 0.77 µg/mL |
| COc1ccc(NC(=O)[C@@H](CCCNC(=N)N)NC(=O)c2cc(NC(=O)[C@@H](CCCNC(=N)N)NC(=O)c3cc(NC(=O)[C@@H](Cc4c[nH]c5ccccc45)NC(=O)c4cc(NC(=O)[C@H](N)CCCNC(=N)N)ccc4OC)ccc3OC)ccc2OC)cc1C(N)=O [Compound 85] | – | 0.36 | 1.93 µg/mL |
| COc1cc(OC)c(C(=O)N[C@H]2CC[C@H](NC(=O)c3cc(C(=O)NCCN(C)C)c(OCCCCCN)cc3OCCCCCN)CC2)cc1C(=O)NCCN(C)C [Compound 86] | inactive | – | >90 µg/mL |
| COc1ccc(NC(=O)[C@H](CCCCN)NC(=O)c2cc(NC(=O)[C@H](CCCCN)NC(=O)c3cc(OC(=O)[C@@H](N)CCCCN)ccc3OC)ccc2OC)cc1C(=O)N[C@@H](CCCCN)C(=O)Nc1ccc(OCC(=O)O)c(C(N)=O)c1 [Compound 116] | 3.10 µg/mL | – | – |
| COc1ccc(NC(=O)[C@H](CCCCN)NC(=O)c2cc(NC(=O)[C@H](CCCCN)NC(=O)c3cc(NC(=O)[C@H](CCCCN)NC(=O)c4cc(NC(=O)[C@@H](N)CCCCN)ccc4OC)ccc3OCC(=O)O)ccc2OC)cc1C(N)=O [Compound 118] | 3.14 µg/mL | – | – |

— patent US20110178104A1, “Anti-Heparin Compounds” (POLYMEDIX INC., priority 2010, published 2011)
